Reference: patent US6528543B1, “Urea derivatives” (Hoffman-La Roche Inc., priority 1999, dated 2003)

SMILES	melting point [°C]
NC(=O)NC(=O)C(CC1CCCCC1)c1ccc(Cl)c(Cl)c1 (stereo not shown) [Example 1]	76 to 79
CNC(=O)NC(=O)C(CC1CCCC1)c1cccc(Cl)c1 (stereo not shown) [Example 2, 1-[2-(3-chloro-phenyl)-3-cyclopentyl-propionyl]-3-methyl-urea]	52 to 55
CNC(=O)NC(=O)C(CC1CCCC1)c1ccc(F)c(F)c1 (stereo not shown) [Example 3, 1-[3-cyclopentyl-2-(3,4-difluoro-phenyl)-propionyl]-3-methyl-urea]	111 to 113
CNC(=O)NC(=O)C(CC1CCCC1)c1ccc(Cl)cc1 (stereo not shown) [Example 4, 1-[2-(4-chloro-phenyl)-3-cyclopentyl-propionyl]-3-methyl-urea]	145 to 147
CNC(=O)NC(=O)C(CC1CCCC1)c1ccc([N+](=O)[O-])cc1 (stereo not shown) [Example 5, 1-[3-cyclopentyl-2-(4-nitro-phenyl)-propionyl]-3-methyl-urea]	179 to 183
CNC(=O)NC(=O)C(CC1CCCC1)c1ccccc1 (stereo not shown) [Example 6, 1-(3-cyclopentyl-2-phenyl-propionyl)-3-methyl-urea]	145 to 147
CNC(=O)NC(=O)C(CC1CCCC1)c1ccc(Br)cc1 (stereo not shown) [Example 7, 1-[2-(4-bromo-phenyl)-3-cyclopentyl-propionyl]-3-methyl urea]	184 to 186
CNC(=O)NC(=O)C(CC1CCCC1)c1ccc(SC(F)(F)F)cc1 (stereo not shown) [Example 8, 1-[3-cyclopentyl-2-(4-trifluoromethylsulfanyl-phenyl)-propionyl]-3-methyl urea]	144 to 145
CNC(=O)NC(=O)C(CC1CCCC1)c1ccc(S(=O)(=O)C(F)(F)F)cc1 (stereo not shown) [Example 9, 1-[3-cyclopentyl-2-(4-trifluoromethanesulfonyl-phenyl)-propionyl]-3-methyl urea]	191 to 192
CNC(=O)NC(=O)C(CC1CCCC1)c1ccc(SC)cc1 (stereo not shown) [Example 10, 1-[3-cyclopentyl-2-(4-methylsulfanyl-phenyl)-propionyl]-3-methyl urea]	185 to 186
CNC(=O)NC(=O)C(CC1CCCC1)c1ccc(S(C)(=O)=O)cc1 (stereo not shown) [Example 11, 1-[3-cyclopentyl-2-(4-methanesulfonyl-phenyl)-propionyl]-3-methyl urea]	205 to 206
CNC(=O)NC(=O)[C@H](CC1CCCC1)c1ccc(Cl)c(Cl)c1 [Example 13, 1-[3-cyclopentyl-2(R)-(3,4-dichloro-phenyl)-propionyl]-3-methyl-urea]	124.8 to 127.5
CNC(=O)NC(=O)C(CC1CCCC1)c1ccc(S(C)(=O)=O)c([N+](=O)[O-])c1 (stereo not shown) [Example 14, 1-[3-cyclopentyl-2-(4-methanesulfonyl-3-nitrophenyl)-propionyl]-3-methyl-urea]	241 to 242
CC(C)CC(C(=O)NC(N)=O)c1ccc(Cl)cc1 (stereo not shown) [Example 16, [2-(4-chloro-phenyl)-4-methyl-pentanoyl]-urea]	164 to 165
CC(C)C[C@@H](C(=O)NC(N)=O)c1ccc(Cl)c(Cl)c1 [Example 17, R-[2-(3,4-dichloro-phenyl)-4-methyl-pentanoyl]-urea]	138 to 140
CC(O)CNC(=O)NC(=O)C(CC1CCCC1)c1ccc(Cl)c(Cl)c1 (stereo not shown) [Example 19, 1-[3-cyclopentyl-2-(3,4-dichloro-phenyl)-propionyl]-3-(2-hydroxy-propyl)-urea]	116.7 to 119.9
COC(=O)CNC(=O)NC(=O)C(CC1CCCC1)c1ccc(Cl)c(Cl)c1 (stereo not shown) [Example 21, {3-[3-cyclopentyl-2-(3,4-dichloro-phenyl)-propionyl]-ureido}-acetic acid methyl ester]	134.5 to 136.6
CNC(=O)NC(=O)C(CC1CCCC1)c1cccc(S(=O)(=O)C(F)(F)F)c1 (stereo not shown) [Example 31, 1-[3-cyclopentyl-2-(3-trifluoromethanesulfonyl-phenyl)-propionyl]-3-methyl-urea]	59 to 62
CNC(=O)NC(=O)C(CC1CCCC1)c1ccc(C(F)(F)F)c(F)c1 (stereo not shown) [Example 32, 1-[3-cyclopentyl-2-(3-fluoro-4-trifluoromethyl-phenyl)-propionyl]-3-methyl-urea]	187 to 189

Next, values leading:

melting point [°C]	SMILES
200 to 201	CCS(=O)(=O)c1ccc(C(CC2CCCC2)C(=O)NC(=O)NC)cc1 (stereo not shown) [Example 33, 1-[3-cyclopentyl-2-(4-ethanesulfonyl-phenyl)-propionyl]-3-methyl-urea]
61 to 64	CNC(=O)NC(=O)C(CC1CCCC1)c1ccc(Cl)c([N+](=O)[O-])c1 (stereo not shown) [Example 34, 1-[2-(4-chloro-3-nitro-phenyl)-3-cyclopentyl-propionyl]-3-methyl-urea]
259 to 260	CNC(=O)NC(=O)C(CC1CCCC1)c1ccc(S(C)(=O)=O)c(Br)c1 (stereo not shown) [Example 35, 1-[2-(3-bromo-4-methanesulfonyl-phenyl)-3-cyclopentyl-propionyl]-3-methyl-urea]
237 to 239	CNC(=O)NC(=O)C(CC1CCCC1)c1ccc(S(C)(=O)=O)c(C#N)c1 (stereo not shown) [Example 36, 1-[2-(3-cyano-4-methanesulfonyl-phenyl)-3-cyclopentyl-propionyl]-3-methyl-urea]
220 to 222	CNC(=O)NC(=O)C(CC1CCCC1)c1ccc(S(C)(=O)=O)c(S(C)(=O)=O)c1 (stereo not shown) [Example 37, 1-[2-(3,4-bis-methanesulfonyl-phenyl)-3-cyclopentyl-propionyl]-3-methyl-urea]
189 to 191	CCCCS(=O)(=O)c1ccc(C(CC2CCCC2)C(=O)NC(=O)NC)cc1 (stereo not shown) [Example 39, 1-{2-[4-(butane-1-sulfonyl)-phenyl]-3-cyclopentyl-propionyl}-3-methyl-urea]
268 to 270	CNC(=O)NC(=O)C(CC1CCCC1)c1ccc(S(C)(=O)=O)c(C(F)(F)F)c1 (stereo not shown) [Example 40, 1-[3-cyclopentyl-2-(4-methanesulfonyl-3-trifluoromethyl-phenyl)-propionyl]-3-methyl-urea]
199 to 200	CNC(=O)NC(=O)C(CC1CCCC1)c1ccc(S(C)(=O)=O)c(F)c1 (stereo not shown) [Example 42, 1-[3-cyclopentyl-2-(3-fluoro4-methanesulfonyl-phenyl)-propionyl]-3-methyl-urea]
61 to 65	CNC(=O)NC(=O)C(CC1CCCC1)c1ccc(C#N)cc1 (stereo not shown) [Example 43, 1-[2-(4-cyano-phenyl)-3-cyclopentyl-propionyl]-3-methyl-urea]
